Test results taken from patent US4981856A, “Anti-tumor agents” (Imperial Chemical Industries PLC, priority 1987, dated 1991).

Key:
humans = details: particularly in relation to the liver and kidney; cited from earlier work
thymidylate synthetase = thymidylate synthetase (Mus musculus, UniProt P07607); experiment: inhibitory effect on the enzyme thymidylate synthetase in vitro; type: biochemical; details: in vitro enzyme inhibition; read-out: IC50 against thymidylate synthetase
Description: (§1) Compounds of this type are believed to act as anti-tumour agents by inhibiting the enzyme thymidylate synthetase. Their anti-tumour activity may be assessed in vitro by determining their inhibitory effect on that enzyme, and in cell cultures by their inhibitory effect on the cell line L1210.
(§2) As also stated above a quinazoline of the invention is believed to act as an anti-tumour agent by inhibiting the enzyme thymidylate synthetase. This anti-tumour activity may be assessed in vitro by determining the inhibitory effect on that enzyme and is cell cultures by the inhibitory effect on the mouse leukaemia cell line L1210 (UK Patent Specification No. 2065653B).

L1210 cell line = experiment: inhibitory effect on the mouse leukaemia cell line L1210 in cell culture; type: cell-based; details: read-out: IC50 against the L1210 cell line
Description: as §1, §2

Chain of thymidylate synthetase (P07607 whole entry): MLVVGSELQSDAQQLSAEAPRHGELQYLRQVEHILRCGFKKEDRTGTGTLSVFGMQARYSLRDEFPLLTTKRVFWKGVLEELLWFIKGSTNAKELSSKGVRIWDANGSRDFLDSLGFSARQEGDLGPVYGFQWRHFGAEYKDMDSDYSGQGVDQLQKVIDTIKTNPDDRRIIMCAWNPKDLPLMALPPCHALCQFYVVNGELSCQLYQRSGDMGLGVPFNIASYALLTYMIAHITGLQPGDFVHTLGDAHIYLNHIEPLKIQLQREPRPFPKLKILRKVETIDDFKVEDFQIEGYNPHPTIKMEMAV

| SMILES | symptoms of toxicity in humans (humans) | IC50 (thymidylate synthetase) [nM] | IC50 (L1210 cell line) [nM] |
| --- | --- | --- | --- |
| C#CCN(Cc1ccc2nc(N)[nH]c(=O)c2c1)c1ccc(C(=O)N[C@@H](CCC(=O)O)C(=O)O)cc1 [CB3717] | shows symptoms of toxicity in humans, particularly in relation to the liver and kidney | – | – |
| C#CCN(Cc1cc2c(=O)[nH]c(C)nc2cc1C)c1ccc(C(=O)N[C@@H](CCC(=O)O)C(=O)O)cc1 [N-[p-[N-(3,4-dihydro-2,7-dimethyl-4-oxoquinazolin-6-ylmethyl)-N-(prop-2-ynyl)amino]benzoyl]-L-glutamic acid] | – | 30 | 180 |
